Among the data in patent US6570001B1, “Polynucleotides and their use for detecting resistance to streptogramin A or to streptogramin B and related compounds” (priority 1997, dated 2003) are resistance phenotype and MIC values, retold here.

The subject of assay [1] is S. aureus recipient RN4220 transformants carrying recombinant plasmid pIP1717. Put plainly: MICs by serial twofold dilutions in MHA, S. aureus RN4220 transformants carrying pIP1717 (vgaB). The class given is cell-based. The following applies: S. aureus RN4220 transformants with pIP1717. The text has this: First, the 2.4 kb HindIII-Haelll fragment of pIP1675, which contains only 10 nucleotide from vatB, was inserted into plasmid pOX300, and the recombinant plasmid, pIP1717 (FIG. 1B), was introduced by electroporation into the S. aureus recipient, RN4220 (Kreiswirth et al., 1983). Plasmid pOX300, also named pOX7, (Dyke and Curnock, 1989), is a hybrid of pUC18 and pEl94ts and replicates in E. coli where it confers resistance to ampicillin and to erythromycin, and in S. aureus where only resistance to erythromycin is expressed. The S. aureus transformants selected on 10 μg/ml erythromycin were resistant to streptogramin A and related compounds (PIIA MICs=8-16 μg/ml). Thus, the 2.4-kb HindIII-HaeIII insert of pIP1717 (FIG. 1B) probably carried a streptogramin A resistance gene and was sequenced. The nucleotide (nucleotide) sequence of this fragment was determined by the dideoxy method (Sanger et al., 1977) with the reagents and the procedure recommended by the suppliers of the T^7 sequencing kit (Pharmacia International). Arrows indicate the direction and extent of each dideoxy-sequencing reaction. (FIG. 1B).
(§1) Minimal inhibitory concentrations (MICs) of antibiotics were determined by serial twofold dilutions of antibiotics in MHA (Ericson H. M. and S. C. Sherris, ActaPathol. Microbiol. Scand., 1971, Suppl. 217:Section B).

The subject of assay [2] is S. aureus recipient strain RN4220 harboring pIP1714. Put plainly: Susceptibility of S. aureus RN4220 transformant harboring pIP1714 (vatC, vgbB). The class given is cell-based. The following applies: RN4220 transformant harboring pIP1714, selected on 10 μg/ml pristinamycin IIA. On the procedure: The strain BM10711 harbored several plasmids including pIP1714 (5 kb). This plasmid was isolated by electroporation in a S. aureus recipient strain, RN4220. The transformant, harboring pIP1714, was selected on BHIA containing 10 μg/ml pristinamycin IIA.
Susceptibility to antimicrobial agents was determined with a disk diffusion assay and commercially available disks (Diagnostic Pasteur). Additional disks prepared in our laboratory contained streptogramin A (20 μg) or streptogramin B (40 μg).
as §1

Assay [3] concerns Staphylococcal strains resistant to streptogramins. The settings on record: staphylococci resistant to synergistic mixtures of A and B compounds / to A compounds (Allignet et al., 1996); cited from earlier work.

Take streptogramin A: the values for the resistance phenotype result in assay [1] and in assay [2] were “resistant” and “conferred resistances”, respectively.

With `CC1=C\[C@@H](O)CC(=O)Cc2nc(co2)C(=O)N2CCC=C2C(=O)O[C@H](C(C)C)[C@H](C)/C=C/C(=O)NC\C=C\1` [PIIA, pristinamycin IIA], the MIC in assay [3] is at least 8 µg/mL.

As for streptogramin B, the resistance phenotype entry in assay [2] is reported as “conferred resistances”.

By MIC is commonly meant the lowest concentration that inhibits growth of the organism.
